Converted amounts (≈) assume the structure as drawn. Like-named read-outs stand apart in the source and are kept apart here.
Assays:
H. pylori = test: MIC testing by broth dilution, H. pylori; assay type: cell-based, Helicobacter pylori
Outline: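 Broth dilution MIC determination against H. pylori: a standard inoculum in 100 microliters of Brain Heart Infusion medium was placed in 96 well microplates. Test compounds began at 32 μg/ml in 200 microliters in well one and were serially diluted over a 32 to 0.06 range. After 24 h, plates were scored by eye and the first well without growth was recorded as the MIC.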

C. jejuni = test: MIC testing by broth dilution, C. jejuni; assay type: cell-based, Campylobacter jejuni
Outline: (§1)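 Twofold broth microdilution from 32 μg/ml down to 0.06, in LB for E. coli, Trypticase Soy for S. epidermidis (planktonic) and Brain Heart Infusion for C. jejuni. C. difficile: anaerobic disk diffusion on Wilkins Chalgrin agar, inhibition zone expressed as a ratio to the NTZ zone.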

MRSA = test: MIC testing by broth dilution, MRSA; assay type: cell-based, Staphylococcus aureus
Outline: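 Values are broth-dilution MICs, defined as the well showing no growth on visual reading after 24 h; the tested range was 32 to 0.06 μg/ml, in organism-specific media (LB, Trypticase Soy, Brain Heart Infusion). The C. difficile entries come instead from anaerobic Kirby-Bauer disk zones, normalised to NTZ.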

S. epidermidis = test: MIC testing by broth dilution, S. epidermidis plank; assay type: cell-based, Staphylococcus epidermidis
Outline: as §1

[1] = test system: PFOR (pyruvate ferredoxin oxidoreductase); test: Direct PFOR enzyme assay; assay type: biochemical; settings: Furan analogues table
Procedure: (§2) Representative compounds of the invention were tested in a series of assays against a series of organisms as described above. […] The organisms tested include, C. difficile, H. pylori, C. jejuni, MRSA, S. epidermidis, and E. coli. S. epidermidis and E. coli were tested in the plank and biofilm assay. A disk diffusion assay was also used for C. difficile. Direct PFOR enzyme assays were also performed. All analogues and derivatives were not tested on every organism in every type of assay (the “-” in each table means that it was not tested).

S. epidermidis biofilm = S. epidermidis biofilm assay (activity tables); assay type: cell-based, Staphylococcus epidermidis; settings: for MIC S. epidermidis Biofilm: Furan analogues table
Procedure: Staphylococcal strains were cultured overnight in TSB at 37° C. with shaking, diluted in fresh medium to an OD600 of 0.01 and 200 W was dispensed into sterile flat bottom polystyrene 96 well microtiter plates (Costar 3596, Corning Inc.). […] Each compound and dilution was tested in triplicate. The plates were incubated overnight at 37° C. in a humidified incubator, without shaking and both growth and biofilm accumulation were determined at 16 h.
Following recording of turbidities, the culture medium was aspirated and the wells were washed three times with distilled water, blotted on paper towels, and fixed with 75% ethanol for 10 minutes.
To visualize biofilm material, 0.5% crystal violet was added to each well and after 5 minutes was removed and the wells washed three times with distilled water. Plates were read using a microplate reader at a wavelength of 570 nm. The dye was then extracted by adding 200 W of 95% ethanol, and the absorbance was read again at 570 nm. All assays were performed in triplicate and the mean and standard deviation determined. […]
as §2

E. coli = test: MIC testing by broth dilution, E. coli plank; assay type: cell-based, Escherichia coli
Outline: as §1

E. coli biofilm = E. coli biofilm assay (activity tables); assay type: cell-based, Escherichia coli; settings: biofilm
Procedure: A quantitative biofilm assay was used to determine the effect of NTZ on biofilm formation (41). Strain 042 was grown overnight at 37° C. with shaking and inoculated 1:100 in 200 μl culture medium in Costar 96-well, flat-bottom, polystyrene microtiter plates containing appropriate concentrations of NTZ. Plates were incubated statically at 37° C. in a humidified incubator. At 24 h, bacterial growth was measured by either transferring […] aliquots to another microtiter plate to determine turbidity or by diluting 100 μl aliquots 1:100 in 9.9 ml PBS for quantitative plate counts on LB medium. Bacterial counts in triplicate are reported as cfu/ml. Biofilm was visualized following staining with 0.5% crystal violet (41) and the absorbance was read at 570 nm using a microplate reader (Molecular Dynamics). All experiments were in triplicate and reported as mean and standard deviation.
(§3) A standard broth dilution protocol was used in 96 well microplates containing a standard dilution of the microorganism to be tested in 100 microliters of the appropriate medium. Appropriate medium: E. coli, LB medium; Staphylococcus strains, Trypticase Soy; and for H. pylori and C. jejuni, Brain Heart Infusion. The compounds to be tested were set at 32 μg/ml in 200 microliters in well one and then serially diluted to provide a range from 32 to 0.06. The wells were scored visually at 24 h. The well where there was no growth was recorded as the MIC. Clostridium difficile was tested by agar diffusion and disk diffusion (Kirby Bower) methods under anaerobic conditions on Wilkins Chalgrin agar. In these assays, zone of inhibited growth was measured and compared by relative ratio to the zone recorded for NTZ.
as §2

C. difficile = test: Disk diffusion (Kirby Bower), C. difficile; assay type: cell-based, Clostridium difficile
Procedure: as §3, §2

[2] = Furan analogues table, read-out: MIC H. pylori
[3] = Furan analogues table, read-out: MIC C. jejuni
[4] = Furan analogues table, read-out: MIC MRSA
[5] = planktonic, Furan analogues table, read-out: MIC S. epidermidis Plank
[6] = broth dilution, Brain Heart Infusion, 24 h, read-out: MIC (μM) H. pylori
[7] = broth dilution, Brain Heart Infusion, 24 h, read-out: MIC (μM) C. jejuni
[8] = broth dilution, Trypticase Soy, 24 h, read-out: MIC (μM) MRSA
[9] = broth dilution, Trypticase Soy, 24 h, read-out: MIC (μM) S. epidermidis Plank
[10] = broth dilution, LB medium, 24 h, read-out: MIC (μM) E. coli Plank
[11] = read-out: MIC (μM) E. coli Biofilm
[12] = planktonic, Furan analogues table, read-out: MIC E. coli Plank
[13] = Furan analogues table, read-out: MIC E. coli Biofilm

| MIC (H. pylori; [2]) [µM] | MIC (C. jejuni; [3]) [µM] | MIC (MRSA; [4]) [µM] | MIC (S. epidermidis; [5]) [µM] | MIC S. epidermidis Biofilm (S. epidermidis biofilm) [µM] | Compound | MIC (H. pylori; [6]) [µM] | MIC (C. jejuni; [7]) [µM] | MIC (MRSA; [8]) [µM] | MIC (S. epidermidis; [9]) [µM] | MIC (μM) S. epidermidis Biofilm (S. epidermidis biofilm) [µM] | MIC (E. coli; [10]) [µM] | MIC (E. coli biofilm; [11]) [µM] | further results |
| --- | --- | --- | --- | --- | --- | --- | --- | --- | --- | --- | --- | --- | --- |
| 1.0 (≈ 0.333 µg/mL) | 96.0 (≈ 32 µg/mL) | 96.0 (≈ 32 µg/mL) | 96.0 (≈ 32 µg/mL) |  | O=C(Nc1ncc([N+](=O)[O-])s1)c1ccc(-c2ccc(F)cc2)o1 [VPC16a1104] |  |  |  |  |  |  |  | PFOR inhibition relative to nitazoxanide (=100) [1]: 81% |
| 6.9 (≈ 2.49 µg/mL) | 16.7 (≈ 6.02 µg/mL) | 88.8 (≈ 32 µg/mL) | 11.1 (≈ 4 µg/mL) | 11.1 (≈ 4 µg/mL) | O=C(Nc1ncc([N+](=O)[O-])s1)c1ccc(-c2ccc([N+](=O)[O-])cc2)o1 [VPC161189] |  |  |  |  |  |  |  | MIC (E. coli; [12]): 88.8 µM (≈ 32 µg/mL); MIC (E. coli biofilm; [13]): 88.8 µM (≈ 32 µg/mL) |
| 6.9 (≈ 2.49 µg/mL) | 16.7 (≈ 6.02 µg/mL) | 44.4 (≈ 16 µg/mL) | 11.1 (≈ 4 µg/mL) | 11.1 (≈ 4 µg/mL) | O=C(Nc1ncc([N+](=O)[O-])s1)c1ccc(-c2cccc([N+](=O)[O-])c2)o1 [VPC161190] |  |  |  |  |  |  |  | MIC (E. coli; [12]): 88.8 µM (≈ 32 µg/mL); MIC (E. coli biofilm; [13]): 88.8 µM (≈ 32 µg/mL) |
|  |  |  |  | 5.7 (≈ 2.18 µg/mL) | O=C(Nc1ncc([N+](=O)[O-])s1)c1ccc(-c2ccccc2C(F)(F)F)o1 [VPC161196, N-(5-Nitrothiazol-2-yl)-5-(2-(trifluoromethyl)phenyl)furan-2-carboxamide] |  |  |  |  |  |  |  | MIC (H. pylori; Helicobacter pylori, Furan analogues table, read-out: MIC H. pylori): 1.1 µM (≈ 0.422 µg/mL); MIC (C. jejuni; Campylobacter jejuni, Furan analogues table, read-out: MIC C. jejuni): 8.5 µM (≈ 3.26 µg/mL); MIC (MRSA; Staphylococcus aureus, MRSA, Furan analogues table, read-out: MIC MRSA): 2.8 µM (≈ 1.07 µg/mL); MIC (S. epidermidis; Staphylococcus epidermidis, planktonic, Furan analogues table, read-out: MIC S. epidermidis Plank): 5.7 µM (≈ 2.18 µg/mL); MIC (E. coli; Escherichia coli, planktonic, Furan analogues table, read-out: MIC E. coli Plank): 90.8 µM (≈ 34.8 µg/mL); MIC (E. coli biofilm; Escherichia coli, Furan analogues table, read-out: MIC E. coli Biofilm): 90.8 µM (≈ 34.8 µg/mL); Disk Diff (%) C. difficile (C. difficile; Nitazoxanide = 100, Furan analogues table): 70.5 ± 0.5% |

The next lines start with the compound.

| Compound | MIC (H. pylori; [2]) [µM] | MIC (C. jejuni; [3]) [µM] | MIC (MRSA; [4]) [µM] | MIC (S. epidermidis; [5]) [µM] | MIC S. epidermidis Biofilm (S. epidermidis biofilm) [µM] | MIC (H. pylori; [6]) [µM] | MIC (C. jejuni; [7]) [µM] | MIC (MRSA; [8]) [µM] | MIC (S. epidermidis; [9]) [µM] | MIC (μM) S. epidermidis Biofilm (S. epidermidis biofilm) [µM] | MIC (E. coli; [10]) [µM] | MIC (E. coli biofilm; [11]) [µM] | further results |
| --- | --- | --- | --- | --- | --- | --- | --- | --- | --- | --- | --- | --- | --- |
| CCCCCCCC(=O)Nc1ncc([N+](=O)[O-])s1 [VPC16b1046] |  |  |  |  |  | 0.8 (≈ 0.217 µg/mL) | 106.9 (≈ 29 µg/mL) | 59.0 (≈ 16 µg/mL) | 11.1 (≈ 3.01 µg/mL) | 7.4 (≈ 2.01 µg/mL) | 117.9 (≈ 32 µg/mL) | 88.4 (≈ 24 µg/mL) | Disk Diffusion (%) C. difficile (C. difficile; zone of inhibited growth as relative ratio to the zone for NTZ): 54 ± 4% |
| O=C(Nc1ncc([N+](=O)[O-])s1)c1ccccc1C(F)(F)F [VPC161182] |  |  |  |  |  | 1.6 (≈ 0.508 µg/mL) | 18.9 (≈ 6 µg/mL) | 25.2 (≈ 7.99 µg/mL) | 25.2 (≈ 7.99 µg/mL) | 50.4 (≈ 16 µg/mL) | 100.9 (≈ 32 µg/mL) | 100.9 (≈ 32 µg/mL) |  |
| COc1ccccc1C(=O)Nc1ncc([N+](=O)[O-])s1 [VPC161192] |  |  |  |  |  | 1.8 (≈ 0.503 µg/mL) | 17.9 (≈ 5 µg/mL) | 114.6 (≈ 32 µg/mL) | 114.6 (≈ 32 µg/mL) | 114.6 (≈ 32 µg/mL) | 114.6 (≈ 32 µg/mL) | 57.3 (≈ 16 µg/mL) |  |

Reference: patent US8835644B2, “Broad spectrum benzothiophene-nitrothiazolide and other antimicrobials” (University of Virginia Patent Foundation, priority 2009, dated 2014)
